From patent publication US20040213751A1, “Augmentation of pyrithione activity or a polyvalent metal salt of pyrithione activity by zinc-containing layered material” (priority 2003, published 2004)

Tested on: Malassezia furfur (ATCC 14521)
Test: Minimum inhibitory concentration (MIC) of ZPT in mDixon agar, with and without augmenting material
Format: cell-based
Description: In some cases, materials can augment the activity of antifungal actives. As used herein, the term augmentation is intended to mean enhancement of the antifungal activity of a ZPT-containing composition by the augmenting material to an extent sufficient to permit the use of a lower amount of ZPT without reducing the antifungal inhibition provided by the composition, as compared to the antifungal inhibition that is provided by an otherwise-identical ZPT-containing composition that is free of the augmenting material. Augmenting agents are generally specific to the material being augmented, forming a unique combination and often because there is a specific chemical or biological mechanism required to achieve the augmentation effect. ^1 The Minimum Inhibitory Concentration is indicative of anti-fungal efficacy. Generally, the lower the value of the composition, the better its anti-fungal efficacy, due to increased inherent ability of the anti-dandruff agent to inhibit the growth of microorganisms.
An “augmentation factor” is defined, which is the ratio of the MIC with and without an augmenting agent (at a specified concentration): [formula]
Dilutions of solubilized anti-microbial active were then added to test tubes containing molten mDixon agar. M. furfur inoculum was added to each tube of molten agar, the tube vortexed, and the contents poured into separate sterile petri dishes. […] The lowest tested dilution of anti-microbial active that yields no growth is defined as the Minimal Inhibitory Concentration (MIC).
1) Malassezia furfur was grown in a 250 ml Erlenmeyer flask containing 100 mil “mDIXON” medium at 320 rpm and 30° C. until turbid.
2) Selected dilutions were prepared using an appropriate dilution series, of the anti-microbial active or combination in solvent, which allowed the sample active to be solubilized prior to addition to the final test agar. For each concentration of the ZPT samples, the solvent was “DMSO”; for other samples, the solvent was water or “DMSO” or other suitable solvent.
3) 0.25 ml dilutions of anti-microbial active were added to test tubes containing 9.5 ml molten “mDIXON” agar (held at 45° C. in a water bath).
4) 0.25 M. furfur inoculum (adjusted to 5×10^5 cfu/ml by direct count) was added to each test tube of molten agar.
5) Each tube was vortexed, and the contents poured into separate petri dishes.
6) After the agar solidified, the plates inverted and incubated at 30° for 5 days.
7) The plates were then observed for visible M. furfur growth.

Row | Molecule | MIC of ZPT alone (Malassezia furfur, mDixon agar, 30° for 5 days, no augmenting material) [ppm] | Augmentation Benefit (5 ppm augmenting material, effective agent has augmentation factor greater than 1) | MIC of ZPT with 5 ppm augmenting material (Malassezia furfur, mDixon agar, 30° for 5 days, 5 ppm of the named augmenting material) [ppm] | Augmentation Factor (ratio of the MIC of ZPT without and with 5 ppm augmenting material)
1 | [O-]n1ccccc1=S.[O-]n1ccccc1=S.[Zn+2] [ZPT, zinc salt of 1-hydroxy-2-pyridinethione] | 8 |  |  | 
2 | Zinc Stearate |  | No | 8 | 1.0
